In brackets after ≈: the same amount, converted by molar mass.
Experiments:
Format in all cases: functional
[1] = tested on: Staphylococcus aureus; assay: Antibacterial activity against methicillin-sensitive Staphylococcus aureus 14-2 after 18 to 24 hrs by CLSI M100-S11 method
[2] = tested on: Enterococcus faecalis; assay: Antibacterial activity against Enterococcus faecalis 14-1 after 18 to 24 hrs by CLSI M100-S11 method
[3] = tested on: Pseudomonas aeruginosa; assay: Antibacterial activity against Pseudomonas aeruginosa ATCC 27853 after 18 to 24 hrs by CLSI M100-S11 method
[4] = tested on: Pseudomonas aeruginosa; assay: Antibacterial activity against Pseudomonas aeruginosa 14-9 after 18 to 24 hrs by CLSI M100-S11 method
[5] = tested on: Staphylococcus aureus; assay: Antibacterial activity against methicillin-sensitive Staphylococcus aureus 14-3 after 18 to 24 hrs by CLSI M100-S11 method
[6] = tested on: Staphylococcus epidermidis; assay: Antibacterial activity against methicillin-sensitive Staphylococcus epidermidis 14-2 after 18 to 24 hrs by CLSI M100-S11 method
[7] = tested on: Escherichia coli; assay: Antibacterial activity against Escherichia coli 14-2 after 18 to 24 hrs by CLSI M100-S11 method
[8] = tested on: Escherichia coli; assay: Antibacterial activity against extended-spectrum beta-lactamase-producing Escherichia coli 14-1 after 18 to 24 hrs by CLSI M100-S11 method
[9] = tested on: Staphylococcus epidermidis; assay: Antibacterial activity against methicillin-sensitive Staphylococcus epidermidis 14-4 after 18 to 24 hrs by CLSI M100-S11 method
[10] = tested on: Klebsiella pneumoniae; assay: Antibacterial activity against extended-spectrum beta-lactamase-producing Klebsiella pneumoniae 14-17 after 18 to 24 hrs by CLSI M100-S11 method
[11] = tested on: Klebsiella pneumoniae; assay: Antibacterial activity against Klebsiella pneumoniae 14-4 after 18 to 24 hrs by CLSI M100-S11 method
[12] = tested on: Klebsiella pneumoniae; assay: Antibacterial activity against extended-spectrum beta-lactamase-producing Klebsiella pneumoniae 14-19 after 18 to 24 hrs by CLSI M100-S11 method
[13] = tested on: Escherichia coli; assay: Antibacterial activity against Escherichia coli 14-1 after 18 to 24 hrs by CLSI M100-S11 method
[14] = tested on: Pseudomonas aeruginosa; assay: Antibacterial activity against Pseudomonas aeruginosa 14-14 after 18 to 24 hrs by CLSI M100-S11 method
[15] = tested on: Klebsiella pneumoniae; assay: Antibacterial activity against extended-spectrum beta-lactamase-producing Klebsiella pneumoniae 14-18 after 18 to 24 hrs by CLSI M100-S11 method
[16] = tested on: Staphylococcus aureus; assay: Antibacterial activity against methicillin-resistant Staphylococcus aureus 14-5 after 18 to 24 hrs by CLSI M100-S11 method
[17] = tested on: Pseudomonas aeruginosa; assay: Antibacterial activity against Pseudomonas aeruginosa 14-19 after 18 to 24 hrs by CLSI M100-S11 method
[18] = tested on: Enterococcus faecalis; assay: Antibacterial activity against Enterococcus faecalis 14-3 after 18 to 24 hrs by CLSI M100-S11 method
[19] = tested on: Enterococcus faecium; assay: Antibacterial activity against Enterococcus faecium 14-1 after 18 to 24 hrs by CLSI M100-S11 method
[20] = tested on: Klebsiella pneumoniae; assay: Antibacterial activity against Klebsiella pneumoniae 14-1 after 18 to 24 hrs by CLSI M100-S11 method
[21] = tested on: Staphylococcus aureus; assay: Antibacterial activity against methicillin-sensitive Staphylococcus aureus 14-4 after 18 to 24 hrs by CLSI M100-S11 method
[22] = tested on: Pseudomonas aeruginosa; assay: Antibacterial activity against Pseudomonas aeruginosa 14-15 after 18 to 24 hrs by CLSI M100-S11 method
[23] = tested on: Staphylococcus epidermidis; assay: Antibacterial activity against methicillin-resistant Staphylococcus epidermidis 14-37 after 18 to 24 hrs by CLSI M100-S11 method
[24] = tested on: Staphylococcus epidermidis; assay: Antibacterial activity against methicillin-sensitive Staphylococcus epidermidis 14-6 after 18 to 24 hrs by CLSI M100-S11 method
[25] = tested on: Klebsiella pneumoniae; assay: Antibacterial activity against Klebsiella pneumoniae 14-2 after 18 to 24 hrs by CLSI M100-S11 method
[26] = tested on: Staphylococcus aureus; assay: Antibacterial activity against methicillin-resistant Staphylococcus aureus 14-4 after 18 to 24 hrs by CLSI M100-S11 method
[27] = tested on: Enterococcus faecalis; assay: Antibacterial activity against Enterococcus faecalis 14-2 after 18 to 24 hrs by CLSI M100-S11 method
[28] = tested on: Enterococcus faecium; assay: Antibacterial activity against Enterococcus faecium 14-2 after 18 to 24 hrs by CLSI M100-S11 method
[29] = tested on: Staphylococcus aureus; assay: Antibacterial activity against Staphylococcus aureus CMCC 26003 after 18 to 24 hrs by CLSI M100-S11 method
[30] = tested on: Escherichia coli; assay: Antibacterial activity against extended-spectrum beta-lactamase-producing Escherichia coli 14-2 after 18 to 24 hrs by CLSI M100-S11 method
[31] = tested on: Streptococcus pneumoniae; assay: Antibacterial activity against Streptococcus pneumoniae ATCC 19615 after 18 to 24 hrs by CLSI M100-S11 method
[32] = tested on: Staphylococcus epidermidis; assay: Antibacterial activity against methicillin-resistant Staphylococcus epidermidis 14-39 after 18 to 24 hrs by CLSI M100-S11 method
[33] = tested on: Pseudomonas aeruginosa; assay: Antibacterial activity against Pseudomonas aeruginosa 14-16 after 18 to 24 hrs by CLSI M100-S11 method
[34] = tested on: Klebsiella pneumoniae; assay: Antibacterial activity against Klebsiella pneumoniae 14-3 after 18 to 24 hrs by CLSI M100-S11 method
[35] = tested on: Staphylococcus epidermidis; assay: Antibacterial activity against methicillin-resistant Staphylococcus epidermidis 14-22 after 18 to 24 hrs by CLSI M100-S11 method
[36] = tested on: Escherichia coli; assay: Antibacterial activity against Escherichia coli ATCC 25922 after 18 to 24 hrs by CLSI M100-S11 method
[37] = tested on: Mycobacterium tuberculosis; assay: Antimycobacterial activity against Mycobacterium tuberculosis H37Rv ATCC 27294 after 3 days by microplate Alamar Blue assay; conditions: H37Rv ATCC 27294, 72 h

| SMILES | MIC [1] | MIC [2] | MIC [3] | MIC [4] | MIC [5] | MIC [6] | MIC [7] | MIC [8] | MIC [9] | MIC [10] | MIC [11] | MIC [12] | MIC [13] | MIC [14] | MIC [15] | MIC [16] | MIC [17] | MIC [18] | MIC [19] | MIC [20] | also measured |
| --- | --- | --- | --- | --- | --- | --- | --- | --- | --- | --- | --- | --- | --- | --- | --- | --- | --- | --- | --- | --- | --- |
| CCO/N=C1\CN(c2nc3c(cc2F)c(=O)c(C(=O)O)cn3-c2nc(N)c(F)cc2F)CC1CN (stereo unspecified) | 0.25 µg/mL (≈ 0.509 µM) | 16 µg/mL (≈ 32.6 µM) | 4 µg/mL (≈ 8.14 µM) | 16 µg/mL (≈ 32.6 µM) | 0.5 µg/mL (≈ 1.02 µM) | 64 µg/mL (≈ 130 µM) | 64 µg/mL (≈ 130 µM) | 8 µg/mL (≈ 16.3 µM) | 32 µg/mL (≈ 65.1 µM) | 64 µg/mL (≈ 130 µM) | 128 µg/mL (≈ 260 µM) | 128 µg/mL (≈ 260 µM) | 64 µg/mL (≈ 130 µM) | 16 µg/mL (≈ 32.6 µM) | 32 µg/mL (≈ 65.1 µM) | 64 µg/mL (≈ 130 µM) | 32 µg/mL (≈ 65.1 µM) | 32 µg/mL (≈ 65.1 µM) | 128 µg/mL (≈ 260 µM) | 64 µg/mL (≈ 130 µM) | MIC [21]: 0.5 µg/mL (≈ 1.02 µM); MIC [22]: 16 µg/mL (≈ 32.6 µM); MIC [23]: 64 µg/mL (≈ 130 µM); MIC [24]: 32 µg/mL (≈ 65.1 µM); MIC [25]: 128 µg/mL (≈ 260 µM); MIC [26]: 64 µg/mL (≈ 130 µM); MIC [27]: 16 µg/mL (≈ 32.6 µM); MIC [28]: 8 µg/mL (≈ 16.3 µM); MIC [29]: 0.06 µg/mL (≈ 0.122 µM); MIC [30]: 128 µg/mL (≈ 260 µM); MIC [31]: 16 µg/mL (≈ 32.6 µM); MIC [32]: 32 µg/mL (≈ 65.1 µM); MIC [33]: 16 µg/mL (≈ 32.6 µM); MIC [34]: 128 µg/mL (≈ 260 µM); MIC [35]: 32 µg/mL (≈ 65.1 µM); MIC [36]: 0.5 µg/mL (≈ 1.02 µM); MIC [37]: 6.56 µg/mL (≈ 13.3 µM) |
| NC[C@@H]1/C(=N/OCc2ccccc2)CN1c1nc2c(cc1F)c(=O)c(C(=O)O)cn2-c1nc(N)c(F)cc1F | 4 µg/mL (≈ 7.41 µM) | > 128 µg/mL | 128 µg/mL (≈ 237 µM) | 128 µg/mL (≈ 237 µM) | 8 µg/mL (≈ 14.8 µM) | > 128 µg/mL | > 128 µg/mL | 128 µg/mL (≈ 237 µM) | > 128 µg/mL | > 128 µg/mL | > 128 µg/mL | > 128 µg/mL | > 128 µg/mL | 128 µg/mL (≈ 237 µM) | 128 µg/mL (≈ 237 µM) | > 128 µg/mL | 128 µg/mL (≈ 237 µM) | > 128 µg/mL | > 128 µg/mL | > 128 µg/mL | MIC [21]: 4 µg/mL (≈ 7.41 µM); MIC [22]: 128 µg/mL (≈ 237 µM); MIC [23]: > 128 µg/mL; MIC [24]: > 128 µg/mL; MIC [25]: > 128 µg/mL; MIC [26]: > 128 µg/mL; MIC [27]: > 128 µg/mL; MIC [28]: 32 µg/mL (≈ 59.3 µM); MIC [29]: 4 µg/mL (≈ 7.41 µM); MIC [30]: > 128 µg/mL; MIC [31]: 64 µg/mL (≈ 119 µM); MIC [32]: > 133 µg/mL; MIC [33]: 128 µg/mL (≈ 237 µM); MIC [34]: > 128 µg/mL; MIC [35]: > 128 µg/mL; MIC [36]: 8 µg/mL (≈ 14.8 µM); MIC [37]: > 32 µg/mL |
| CO/N=C1\CN(c2nc3c(cc2F)c(=O)c(C(=O)O)cn3-c2nc(N)c(F)cc2F)[C@@H]1CN | 32 µg/mL (≈ 69.1 µM) | > 128 µg/mL | 64 µg/mL (≈ 138 µM) | 64 µg/mL (≈ 138 µM) | 32 µg/mL (≈ 69.1 µM) | > 128 µg/mL | > 128 µg/mL | > 128 µg/mL | > 128 µg/mL | > 128 µg/mL | > 128 µg/mL | > 128 µg/mL | > 128 µg/mL | 64 µg/mL (≈ 138 µM) | 64 µg/mL (≈ 138 µM) | > 128 µg/mL | 64 µg/mL (≈ 138 µM) | > 128 µg/mL | > 128 µg/mL | > 128 µg/mL | MIC [21]: 16 µg/mL (≈ 34.5 µM); MIC [22]: 64 µg/mL (≈ 138 µM); MIC [23]: > 128 µg/mL; MIC [24]: > 128 µg/mL; MIC [25]: > 128 µg/mL; MIC [26]: > 128 µg/mL; MIC [27]: > 128 µg/mL; MIC [28]: 64 µg/mL (≈ 138 µM); MIC [29]: 16 µg/mL (≈ 34.5 µM); MIC [30]: > 128 µg/mL; MIC [31]: 128 µg/mL (≈ 276 µM); MIC [32]: > 131 µg/mL; MIC [33]: 64 µg/mL (≈ 138 µM); MIC [34]: > 128 µg/mL; MIC [35]: > 128 µg/mL; MIC [36]: 16 µg/mL (≈ 34.5 µM); MIC [37]: > 32 µg/mL |

— ChEMBL document CHEMBL3797178, “Synthesis, antimycobacterial and antibacterial activity of 1-(6-amino-3,5-difluoropyridin-2-yl)fluoroquinolone derivatives containing an oxime functional moiety” (2016)
